The supplement of paper PMC10331698
± gives the standard deviation of the averaged measurements.

Tests used:
Assay in all cases: level (log10 ratio to DMSO vehicle control); higher = higher biomarker level / cell amount than vehicle control
[1] = compound: C=C(C)C(=O)OCCC(F)(F)C(F)(F)C(F)(F)C(F)(F)C(F)(F)C(F)(F)F [6:2 Fluorotelomer methacrylate]; conditions: in DMSO
Experimental: (§1)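 BioMAP Diversity Plus panel of 12 human primary cell co-culture systems (3C, 4H, LPS, SAg, BT, BF4T, BE3C, CASM3C, HDF3CGF, KF3CT, MyoF, Mphg). Compounds were added 1 h before stimulation and left for 24 h (MyoF 48 h; BT 72 h for soluble read-outs or 6 d for IgG). Biomarkers were read by ELISA, cytotoxicity by SRB, PBMC viability and proliferation by Alamar Blue. Each well value was divided by the mean of 8 DMSO control wells on the same plate and log10 transformed; duplicate blinded samples were tested at 4 concentrations.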

[2] = compound: C=CC(=O)OCC(F)(F)C(F)(F)C(F)(F)COC(=O)C=C [1H,1H,5H,5H-Perfluoro-1,5-pentanediol diacrylate]; conditions: 6700 nM; in DMSO
Experimental: as §1

[3] = compound: FC(F)(F)C(F)(F)C(F)(F)C(F)(F)C(F)(F)C(F)(F)C(F)(F)I [1-Iodopentadecafluoroheptane]; conditions: in DMSO
Experimental: as §1

[4] = compound: FC(F)(F)C(F)(F)C(F)(F)CC1CO1 [1H,1H-Heptafluorobutyl epoxide]; conditions: in DMSO
Experimental: as §1

[5] = compound: NS(=O)(=O)C(F)(F)C(F)(F)C(F)(F)C(F)(F)C(F)(F)C(F)(F)F [Perfluorohexanesulfonamide]; conditions: in DMSO
Experimental: as §1

[6] = compound: O=S(=O)(O)CCC(F)(F)C(F)(F)C(F)(F)C(F)(F)C(F)(F)C(F)(F)F [6:2 Fluorotelomer sulfonic acid]; conditions: in DMSO
Experimental: as §1

Row | Test System | level (log10) ([1]; 6700 nM) | level (log10) ([1]; 20000 nM) | level (log10) ([1]; 60000 nM) | level (log10) [2] | level (log10) ([3]; 6700 nM) | level (log10) ([3]; 20000 nM) | level (log10) ([4]; 6700 nM) | level (log10) ([4]; 20000 nM) | level (log10) ([4]; 60000 nM) | level (log10) ([5]; 6700 nM) | level (log10) ([5]; 20000 nM) | level (log10) ([5]; 60000 nM) | level (log10) ([6]; 6700 nM) | level (log10) ([6]; 20000 nM) | level (log10) ([6]; 60000 nM)
1 | SAg:CD38 | -0.0075 ± 0.011 | 0.015 ± 0.038 | 0.0005 ± 0.029 | -0.0655 ± 0.046 | -0.0085 ± 0.029 | -0.005 ± 0.024 | 0.0025 ± 0.012 | -0.025 ± 0.0085 | -0.0125 ± 0.03 | 0.0495 ± 0.056 | 0.0225 ± 0.061 | -0.141 ± 0.12 | -0.0315 ± 0.012 | -0.022 ± 0.04 | -0.0505 ± 0.032
2 | SAg:CD40 | -0.024 ± 0.04 | -0.0255 ± 0.028 | -0.0315 ± 0.012 | -0.14 ± 0.033 | -0.0065 ± 0.013 | -0.007 ± 0.0085 | -0.01 ± 0.034 | -0.0015 ± 0.0064 | -0.0235 ± 0.013 | -0.025 ± 0.017 | -0.064 ± 0.0057 | -0.172 ± 0.0064 | -0.0275 ± 0.046 | -0.0285 ± 0.064 | -0.053 ± 0.035
3 | SAg:CD62E/E-Selectin | -0.011 ± 0.038 | 0.0105 ± 0.015 | 0.0105 ± 0.0064 | -0.469 ± 0.1 | -0.0415 ± 0.056 | -0.008 ± 0.044 | -0.0065 ± 0.043 | -0.013 ± 0.0057 | -0.015 ± 0.016 | -0.0155 ± 0.012 | -0.05 ± 0.035 | -0.178 ± 0.034 | -0.008 ± 0.0057 | -0.007 ± 0.013 | 0.038 ± 0.013
4 | SAg:CD69 | -0.001 ± 0.0014 | -0.0035 ± 0.00071 | -0.013 ± 0.024 | -0.181 ± 0.073 | -0.028 ± 0.0071 | -0.039 ± 0.0014 | 0.0115 ± 0.00071 | 0.009 ± 0.0014 | 0 ± 0.031 | -0.028 ± 0.017 | -0.0725 ± 0.019 | -0.217 ± 0.02 | -0.0245 ± 0.059 | -0.04 ± 0.024 | -0.04 ± 0.0057
5 | lMphg:CCL3/MIP-1alpha | 0.0005 ± 0.066 | -0.0185 ± 0.061 | 0.003 ± 0.04 | -0.008 ± 0.0057 | 0.0225 ± 0.023 | 0.0175 ± 0.049 | -0.039 ± 0.0057 | -0.0135 ± 0.019 | 0.0135 ± 0.015 | -0.0025 ± 0.00071 | -0.034 ± 0.044 | -0.0145 ± 0.0092 | 0.014 ± 0.021 | 0.072 ± 0.02 | 0.0565 ± 0.039
6 | lMphg:CD62E/E-Selectin | -0.0005 ± 0.015 | -0.003 ± 0.048 | -0.0135 ± 0.011 | -0.0595 ± 0.00071 | 0.016 ± 0.014 | 0.0355 ± 0.0078 | -0.001 ± 0.059 | -0.005 ± 0.035 | 0.0525 ± 0.025 | -0.02 ± 0.031 | -0.061 ± 0.0014 | -0.191 ± 0.013 | -0.0225 ± 0.018 | -0.039 ± 0.0071 | 0 ± 0.023
